In patent US20060079550A1, “Amino acid derivatives useful for the treatment of alzheimer's disease” (priority 2001, published 2006) one finds Ki data, which are given here for 38 molecules.

Each structure is given as a SMILES string. Where only a bound is given, the exact number is not on record here.

The first assay deals with aspartyl proteases, in particular, beta-secretase. Put plainly: Ki of the compounds listed in Tables 1 and 2 (no method described). Format: biochemical.
Settings: not given
Consider `CC(C)CN([C@@H](CCCCNC(=O)OCC1c2ccccc2-c2ccccc21)C(=O)O)S(=O)(=O)c1ccc(C(C)(C)C)cc1` [Compound No. 10, Nα-isobutyl-Nα-(4-tert-butylbenzenesulfonyl)-Nε-(9-fluorenylmethoxycarbonyl)-L-lysine], for which the Ki (usually a dissociation constant, usually derived from enzyme kinetics or from competition with a known ligand) was found to be 257 nM.

In the case of `Cc1ccc(S(=O)(=O)N(CC(C)C)C(CNCCNC(=O)CCc2ccccc2)C(=O)O)cc1` [Compound No. 206, (2R,2S)-2-[N-isobutyl-N-(4-methylbenzenesulfonyl)]-3-[2′-(N′-dihydrocinnamoyl)ethylamino]-propionic Acid], the Ki is above 300 nM.

The assay is the same for the next values; noted with them: Table 1, compounds of formula Ia, W is -(CH2)n-.
`O=C(NCCC[C@H](NC(=O)OCC1c2ccccc2-c2ccccc21)C(=O)O)OCC1c2ccccc2-c2ccccc21` [Compound No. 73, NαNδ-di-(9-fluorenylmethoxycarbonyl)-L-ornithine] had a Ki of 1300 nM. Same read-out and setting: the figure for `CC(C)CN([C@@H](CCCCNC(=O)CCc1c[nH]c2ccccc12)C(=O)O)S(=O)(=O)c1ccc([N+](=O)[O-])cc1` [Compound No. 95, Nα-isobutyl-Nα-(4-nitrobenzenesulfonyl)-Nε-(3-indolepropionyl)-L-lysine] is 33.4 nM; for `CC(C)CN([C@@H](CCCCNC(=O)CCc1ccccc1)C(=O)O)S(=O)(=O)c1ccc([N+](=O)[O-])cc1` [Compound No. 94, Nα-isobutyl-Nα-(4-nitrobenzenesulfonyl)-Nε-dihydrocinnamoyl-L-lysine] it is 33.9 nM. In turn, `Cc1ccc(S(=O)(=O)NCCC[C@H](NC(=O)OCC2c3ccccc3-c3ccccc32)C(=O)O)cc1` [Compound No. 149, Nδ-(4-methylbenzenesulfonyl)-Nα-(9-fluorenylmethoxycarbonyl)-L-ornithine] yielded a Ki of 10100 nM. On the same count and under the same terms, the figure for `CC(C)CN([C@@H](CCCCNC(=O)/C=C/c1cccnc1)C(=O)O)S(=O)(=O)c1ccc([N+](=O)[O-])cc1` [Compound No. 164, Nα-isobutyl-Nα-(4-nitrobenzenesulfonyl)-Nε-(trans-3-(3-pyridyl)acryloyl)-L-lysine] is above 300 nM; for `Cc1ccc(S(=O)(=O)N(CC(C)C)[C@@H](CCCCNC(=O)c2cc3ccccc3[nH]2)C(=O)O)cc1` [compound 88] it is above 625 nM. On the same count and under the same terms, the figure for `Cc1ccc(S(=O)(=O)N(CC(C)C)[C@@H](CCCCNC(=O)CCc2ccc(O)cc2)C(=O)O)cc1` [Compound No. 126, Nα-isobutyl-Nα-(4-methylbenzenesulfonyl)-Nε-(4-hydroxydihydrocinnamoyl)-L-lysine] is above 300 nM; for `COc1cccc(CCC(=O)NCCCC[C@@H](C(=O)O)N(CC(C)C)S(=O)(=O)c2ccc(N)cc2)c1OC` [Compound No. 119, Nα-isobutyl-Nα-(4-aminobenzenesulfonyl)-Nε-(2,3-dimethoxydihydrocinnamoyl)-L-lysine] it is 6.2 nM; for `Cc1ccc(S(=O)(=O)N(CC(C)C)C(CCCCNC(=O)C2c3ccccc3-c3ccccc32)C(=O)O)cc1` (centres unmarked) [compound 83] it is 105 nM. Same read-out and setting: the figure for `O=C(N[C@@H](CCCCNS(=O)(=O)c1ccccc1)C(=O)O)OCC1c2ccccc2-c2ccccc21` [Compound No. 49, Nε-benzenesulfonyl-Nα-(9-fluorchylmethoxycarbonyl)-L-lysine] is 8900 nM; for `Cc1ccc(S(=O)(=O)N(CC(C)C)[C@@H](CCCCNC(=O)C(c2ccccc2)c2ccccc2)C(=O)O)cc1` [compound 86] it is 171 nM; for `O=C(N[C@@H](CCNS(=O)(=O)c1ccc(Br)cc1)C(=O)O)OCC1c2ccccc2-c2ccccc21` [Compound No. 14, (S)-2-(9-fluorenylmethoxycarbonylamino)-4-(4-bromobenzenesulfonylamino)-butanoic Acid] it is 49000 nM. `COC(=O)[C@H](CCCCNC(=O)OCC1c2ccccc2-c2ccccc21)N(CC(C)C)S(=O)(=O)c1ccc(C)cc1` [Compound No. 123, Nα-isobutyl-Nα-(4-methylbenzenesulfonyl)-Nε-(9-fluorenylmethoxycarbonyl)-L-lysine Methyl Ester] gave a Ki above 300 nM. Still for that read-out and setting: for `Cc1ccc(S(=O)(=O)N(CC2CC2)[C@@H](CCCCNC(=O)OCC2c3ccccc3-c3ccccc32)C(=O)O)cc1` [Compound No. 43, Nα-cyclopropylmethyl-Nα-(4-methylbenzenesulfonyl)-Nε-(9-fluorenylmethoxycarbonyl)-L-lysine] the value was 3.9 nM; for `O=C(N[C@@H](CCCCNS(=O)(=O)c1ccc(Cl)cc1)C(=O)O)OCC1c2ccccc2-c2ccccc21` [Compound No. 53, Nε-(4-chlorobenzenesulfonyl)-Nα-(9-fluorenylmethoxycarbonyl)-L-lysine], 4800 nM; for `O=C(N[C@@H](CCCCNS(=O)(=O)c1ccc(Br)cc1)C(=O)O)c1cnc2cc(C(F)(F)F)ccc2c1O` [Compound No. 23, Nα-(4-hydroxy-7-trifluoromethylquinoline-3-carbonyl)-Nε-(4-bromobenzenesulfonyl)-L-lysine], above 50000 nM. Still for that read-out and setting: for `COc1ccc(S(=O)(=O)N(CC(C)C)[C@@H](CCCCNC(=O)OCC2c3ccccc3-c3ccccc32)C(=O)O)cc1` [Compound No. 7] the value was 10.6 nM. `O=C(NCCCC[C@H](NS(=O)(=O)c1ccc([N+](=O)[O-])cc1)C(=O)O)OCC1c2ccccc2-c2ccccc21` [Compound No. 103, Nα-(4-nitrobenzenesulfonyl)-Nε-(9-fluorenylmethoxycarbonyl)-L-lysine]: the affinity corresponds to a Ki of 3300 nM. On to `COc1ccc(C=CC(=O)NCCCC[C@@H](C(=O)O)N(CC(C)C)S(=O)(=O)c2ccc([N+](=O)[O-])cc2)cc1` [Compound No. 113, Nα-isobutyl-Nα-(4-nitrobenzenesulfonyl)-Nε-(4-methoxycinnamoyl)-L-lysine], for which the inhibition constant Ki is above 300 nM. The molecule `CC(C)CN([C@@H](CCCCNC(=O)CCc1ccccc1N)C(=O)O)S(=O)(=O)c1ccc(N)cc1` [Compound No. 122, Nα-isobutyl-Nα-(4-aminobenzenesulfonyl)-Nε-(2-aminodihydrocinnamoyl)-L-lysine] yielded a Ki above 300 nM. `CC(C)CN([C@@H](CCCCNC(=O)OCC1c2ccccc2-c2ccccc21)C(=O)O)S(=O)(=O)c1ccc(Br)cc1` [Compound No. 4, Nα-isobutyl-Nα-(4-bromobenzenesulfonyl)-Nε-(9-fluorenylmethoxycarbonyl)-L-lysine]: the affinity, expressed as Ki, was 11.4 nM. Still for that read-out and setting: the figure for `CC1(C)[C@@H]2CC[C@@]1(CS(=O)(=O)NCCCC[C@H](NC(=O)OCC1c3ccccc3-c3ccccc31)C(=O)O)C(=O)C2` [Compound No. 35, Nε-(1S)-(10-camphorsulfonyl)-Nα-(9-fluorenylmethoxycarbonyl)-L-lysine] is 33000 nM. The molecule `O=C(N[C@@H](CCCCNS(=O)(=O)c1ccc(Br)cc1)C(=O)O)c1ccccc1` [Compound No. 65, Nα-benzoyl-Nε-(4-bromobenzenesulfonyl)-L-lysine] showed a Ki above 50000 nM. On the same count and under the same terms, the figure for `Cc1ccc(S(=O)(=O)N(CC(C)C)[C@@H](CCCCNC(=O)CC2c3ccccc3-c3ccccc32)C(=O)O)cc1` [compound 84] is 89.7 nM; for `O=C(O)[C@H](CCCCNS(=O)(=O)c1ccc(Br)cc1)NS(=O)(=O)c1ccc(Br)cc1` [Compound No. 17, Nα,Nε-di-(4-bromobenzenesulfonyl)-L-lysine] it is 7700 nM; for `Cc1ccc(S(=O)(=O)N(CC(C)C)[C@@H](CCCCNC(=O)CCc2c[nH]c3ccccc23)C(=O)O)cc1` [compound 89] it is 6.9 nM. Still for that read-out and setting: the figure for `O=C(NCCCC[C@H](NS(=O)(=O)c1ccc(Br)cc1)C(=O)O)OCC1c2ccccc2-c2ccccc21` [Compound No. 66, Nα-(4-bromobenzenesulfonyl)-Nε-(9-fluorenylmethoxycarbonyl)-L-lysine] is 1900 nM. Still for that read-out and setting: for `CC(C)CN([C@@H](CCCCNC(=O)C=Cc1cccc([N+](=O)[O-])c1)C(=O)O)S(=O)(=O)c1ccc([N+](=O)[O-])cc1` [Compound No. 108, Nα-isobutyl-Nα-(4-nitrobenzenesulfonyl)-Nε-(3-nitrocinnamoyl)-L-lysine] the value was above 300 nM. For the molecule `Cc1ccc(S(=O)(=O)N(Cc2ccccc2)[C@@H](CCCCNC(=O)OCC2c3ccccc3-c3ccccc32)C(=O)O)cc1` [Compound No. 40, Nα-benzyl-Nα-(4-methylbenzenesulfonyl)-Nε-(9-fluorenylmethoxycarbonyl)-L-lysine], the affinity, expressed as Ki, was 19.6 nM. On the same count and under the same terms, the figure for `COc1cccc(C=CC(=O)NCCCC[C@@H](C(=O)O)N(CC(C)C)S(=O)(=O)c2ccc([N+](=O)[O-])cc2)c1` [Compound No. 162, Nα-isobutyl-Nα-(4-nitrobenzenesulfonyl)-Nε-(3-methoxycinnamoyl)-L-lysine] is above 300 nM; for `CC(C)CN([C@@H](CCCCNC(=O)OCC1c2ccccc2-c2ccccc21)C(=O)O)S(=O)(=O)c1ccc(N)cc1` [Compound No. 44, Nα-(4-aminobenzenesulfonyl)-Nα-isobutyl-Nε-(9-fluorenylmethoxycarbonyl)-L-lysine] it is 2.1 nM. On the same count and under the same terms, for `Cc1ccc(S(=O)(=O)N(CC(C)C)[C@@H](CCCCNC(=O)OCC2c3ccccc3-c3ccccc32)C(=O)O)cc1` [Compound No. 67, Nα-isobutyl-Nα-(4-methylbenzenesulfonyl)-Nε-(9-fluorenylmethoxycarbonyl)-L-lysine] the value was 4.3 nM.

On to `O=C(N[C@@H](CCCCNS(=O)(=O)c1ccc(Br)cc1)C(=O)O)C1c2ccccc2-c2ccccc21` [Compound No. 38, Nα-(9-fluorenecarbonyl)-Nε-(4-bromobenzenesulfonyl)-L-lysine], for which the inhibitory constant (Ki) is 4700 nM. This Ki is about 1100-fold higher than that of the molecule before.

Turning to `CC(C)CN([C@@H](CCCCNC(=O)CCc1c[nH]c2ccccc12)C(=O)O)S(=O)(=O)c1ccc(N)cc1` [Compound No. 98, Nα-isobutyl-Nα-(4-aminobenzenesulfonyl)-Nε-(3-indolepropionyl)-L-lysine], the affinity corresponds to a Ki of 10.1 nM. The same measure, in the same setting: the figure for `CC(C)CN([C@@H](CCCCNC(=O)COc1ccccc1)C(=O)O)S(=O)(=O)c1ccc([N+](=O)[O-])cc1` [Compound No. 160, Nα-isobutyl-Nα-(4-nitrobenzenesulfonyl)-Nε-phenoxyacetyl-L-lysine] is 24.5 nM. `COc1ccccc1CCC(=O)NCCCC[C@@H](C(=O)O)N(CC(C)C)S(=O)(=O)c1ccc(N)cc1` [Compound No. 157, Nα-isobutyl-Nα-(4-aminobenzenesulfonyl)-Nε-(2-methoxydihydrocinnamoyl)-L-lysine] gave an inhibitory constant (Ki) of 18.9 nM.
